In ChEMBL document CHEMBL3112553, “Synthesis and biological evaluation of novel C6-amino substituted 4-azasteroidal purine nucleoside analogues” (Bioorg Med Chem Lett, 2014):

Tests used:
Assay type in all cases: functional, cell-based
MCF7 = assay: Antiproliferative activity against human MCF7 cells by MTT assay
HeLa = assay: Antiproliferative activity against human HeLa cells by MTT assay
PC-3 = assay: Antiproliferative activity against human PC3 cells by MTT assay

Structure (SMILES)	IC50 (MCF7) [µM]	IC50 (HeLa) [µM]	IC50 (PC-3) [µM]
C[C@]12CCC(=O)N[C@@H]1CC[C@@H]1[C@@H]2CC[C@]2(C)O[C@H](n3cnc4c(NCCN)nc(Cl)nc43)CC[C@@H]12	70.3	22.7	63.4
CN(C)c1nc(Cl)nc2c1ncn2[C@@H]1CC[C@H]2[C@@H]3CC[C@H]4NC(=O)CC[C@]4(C)[C@H]3CC[C@]2(C)O1	> 100	61.3	> 100
C[C@]12CCC(=O)N[C@@H]1CC[C@@H]1[C@@H]2CC[C@]2(C)O[C@H](n3cnc4c(NN)nc(Cl)nc43)CC[C@@H]12	> 100	> 100	2.99
COc1ccc(CNc2nc(Cl)nc3c2ncn3[C@@H]2CC[C@H]3[C@@H]4CC[C@H]5NC(=O)CC[C@]5(C)[C@H]4CC[C@]3(C)O2)cc1	> 100	10.1	> 100
C[C@]12CCC(=O)N[C@@H]1CC[C@@H]1[C@@H]2CC[C@]2(C)O[C@H](n3cnc4c(N(CCO)CCO)ncnc43)CC[C@@H]12	> 100	> 100	> 100
C[C@]12CCC(=O)N[C@@H]1CC[C@@H]1[C@@H]2CC[C@]2(C)O[C@H](n3cnc4c(N(CCO)CCO)nc(Cl)nc43)CC[C@@H]12	> 100	> 100	> 100
COc1ccc(CNc2ncnc3c2ncn3[C@@H]2CC[C@H]3[C@@H]4CC[C@H]5NC(=O)CC[C@]5(C)[C@H]4CC[C@]3(C)O2)cc1	60.3	38.7	> 100
C[C@]12CCC(=O)N[C@@H]1CC[C@@H]1[C@@H]2CC[C@]2(C)O[C@H](n3cnc4c(NCc5ccccc5)ncnc43)CC[C@@H]12	> 100	> 100	20.6
CCN(CC)c1ncnc2c1ncn2[C@@H]1CC[C@H]2[C@@H]3CC[C@H]4NC(=O)CC[C@]4(C)[C@H]3CC[C@]2(C)O1	> 100	33.8	> 100
C[C@]12CCC(=O)N[C@@H]1CC[C@@H]1[C@@H]2CC[C@]2(C)O[C@H](n3cnc4c(NCCN)ncnc43)CC[C@@H]12	> 100	66.2	> 100
CC(CO)Nc1ncnc2c1ncn2[C@@H]1CC[C@H]2[C@@H]3CC[C@H]4NC(=O)CC[C@]4(C)[C@H]3CC[C@]2(C)O1 (stereo partly specified)	> 100	> 100	15.8
C[C@]12CCC(=O)N[C@@H]1CC[C@@H]1[C@@H]2CC[C@]2(C)O[C@H](n3cnc4c(NCCO)nc(Cl)nc43)CC[C@@H]12	> 100	> 100	> 100
C[C@]12CCC(=O)N[C@@H]1CC[C@@H]1[C@@H]2CC[C@]2(C)O[C@H](n3cnc4c(NCCO)ncnc43)CC[C@@H]12	> 100	> 100	49.2
CC(CO)Nc1nc(Cl)nc2c1ncn2[C@@H]1CC[C@H]2[C@@H]3CC[C@H]4NC(=O)CC[C@]4(C)[C@H]3CC[C@]2(C)O1 (stereo partly specified)	> 100	> 100	2.84

Now those with a lower IC50 (MCF7), led by results:

IC50 (MCF7) [µM]	IC50 (HeLa) [µM]	IC50 (PC-3) [µM]	Structure (SMILES)
32.7	28.2	44.2	Cc1ccc(CNc2ncnc3c2ncn3[C@@H]2CC[C@H]3[C@@H]4CC[C@H]5NC(=O)CC[C@]5(C)[C@H]4CC[C@]3(C)O2)cc1
12.9	67.2	26.6	Cc1ccc(CNc2nc(Cl)nc3c2ncn3[C@@H]2CC[C@H]3[C@@H]4CC[C@H]5NC(=O)CC[C@]5(C)[C@H]4CC[C@]3(C)O2)cc1
34.6	> 100	87.2	C[C@]12CCC(=O)N[C@@H]1CC[C@@H]1[C@@H]2CC[C@]2(C)O[C@H](n3cnc4c(NN)ncnc43)CC[C@@H]12
13.5	59.1	> 100	C[C@]12CCC(=O)N[C@@H]1CC[C@@H]1[C@@H]2CC[C@]2(C)O[C@H](n3cnc4c(NCc5ccc(F)cc5)nc(Cl)nc43)CC[C@@H]12
16.4	31.1	58.1	CCN(CC)c1nc(Cl)nc2c1ncn2[C@@H]1CC[C@H]2[C@@H]3CC[C@H]4NC(=O)CC[C@]4(C)[C@H]3CC[C@]2(C)O1
34.8	> 100	91.5	C[C@]12CCC(=O)N[C@@H]1CC[C@@H]1[C@@H]2CC[C@]2(C)O[C@H](n3cnc4c(NCc5ccc(F)cc5)ncnc43)CC[C@@H]12
57.7	70.5	> 100	CN(C)c1ncnc2c1ncn2[C@@H]1CC[C@H]2[C@@H]3CC[C@H]4NC(=O)CC[C@]4(C)[C@H]3CC[C@]2(C)O1
12.8	2.69	17.9	C[C@]12CCC(=O)N[C@@H]1CC[C@@H]1[C@@H]2CC[C@]2(C)O[C@H](n3cnc4c(NCc5ccccc5)nc(Cl)nc43)CC[C@@H]12
